Laboratory results published in patent US10668051B2, “Modulators of calcium release-activated calcium channel” (Rhizen Pharmaceuticals SA, priority 2009, dated 2020).
Counter-ions that a name gives are not always drawn.

Target: CRAC channels (Homo sapiens (Human), UniProt Q96D31)
Experiment: In-vitro CRAC channel inhibition assay in Jurkat cells (thapsigargin-induced calcium influx)
Type: cell-based
Method: 1A. In-Vitro CRAC Channel Inhibition Assay in Jurkat Cells
Plate is incubated at 37° C./5% CO2 for 30 min followed by further 15 min incubation at room temperature. Test compounds (DMSO stocks diluted in Ca^2+ and Mg^2+ free Hanks buffer) at desired concentrations were added to the wells and incubated for 15 min. Thapsigargin (1 μM final concentration) was added to the wells and incubated for 15 min to inhibit the Sarco-endoplasmic reticulum Ca^2+ ATPase pump thereby depleting endoplasmic calcium and raising cytosolic calcium concentrations. Store-operated calcium entry was initiated by adding extracellular Ca^2+ to a final concentration of 1.8 mM. Fluorescence was monitored over 5 min on a plate reader (BMG Labtech., Germany) with excitation at 485 nm and; an emission wavelength at 520 nm. Data were analyzed using GraphPad Prism. IC50 for each compound was determined based on the percent inhibition of thapsigargin-induced calcium influx into cells.

CRAC channels, sequence (Q96D31 whole entry): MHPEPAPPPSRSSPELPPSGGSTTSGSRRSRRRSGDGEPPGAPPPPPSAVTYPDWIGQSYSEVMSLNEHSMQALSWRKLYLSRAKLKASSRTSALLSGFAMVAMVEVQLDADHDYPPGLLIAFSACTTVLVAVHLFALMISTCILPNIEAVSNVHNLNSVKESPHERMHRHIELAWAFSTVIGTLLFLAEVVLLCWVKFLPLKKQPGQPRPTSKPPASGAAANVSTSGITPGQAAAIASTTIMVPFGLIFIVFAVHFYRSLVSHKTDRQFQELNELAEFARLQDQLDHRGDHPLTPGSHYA

Structure (SMILES): Cc1ncncc1C(=O)Nc1ccc(-n2nc(C3CC3)cc2C2CC2)c(F)c1 [Example 36, N-[4-(3,5-dicyclopropyl-1H-pyrazol-1-yl)-3-fluorophenyl]-4-methylpyrimidine-5-carboxamide]
- inhibition at 1 µM: 68.2%

Structure (SMILES): O=C(Nc1ccc(-n2nc(C(F)(F)F)cc2C2CC2)cc1)c1cccc(F)c1F [Example 61, N-{4-[5-cyclopropyl-3-(trifluoromethyl)-1H-pyrazol-1-yl]phenyl}-2,3-difluorobenzamide]
- inhibition at 1 µM: 100%

Structure (SMILES): Cc1ncncc1C(=O)Nc1ccc(-n2nc(C(F)(F)F)cc2C2CC2)cc1 [Example 68, N-{4-[5-cyclopropyl-3-(trifluoromethyl)-1H-pyrazol-1-yl]phenyl}-4-methylpyrimidine-5-carboxamide]
- inhibition at 1 µM: 61.5%

Structure (SMILES): Cc1nc(C)c(C(=O)Nc2ccc(-n3nc(C4CC4)cc3C3CC3)nc2)s1 [Example 40, N-[6-(3,5-dicyclopropyl-1H-pyrazol-1-yl)pyridin-3-yl]-2,4-dimethylthiazole-5-carboxamide]
- inhibition at 1 µM: 12.6%

Structure (SMILES): Cc1ncsc1C(=O)Nc1ccc(-n2nc(C(F)(F)F)cc2C(F)F)cc1 [Example 126, N-{4-[5-(difluoromethyl)-3-(trifluoromethyl)-1H-pyrazol-1-yl]phenyl}-4-methyl thiazole-5-carboxamide]
- inhibition at 1 µM: 100%

Structure (SMILES): Cc1cccnc1C(=O)Nc1ccc(-n2nc(C(F)(F)F)cc2C2CC2)nc1 [Example 110, N-{6-[5-cyclopropyl-3-(trifluoromethyl)-1H-pyrazol-1-yl]pyridin-3-yl}-3-methylpicolinamide]
- inhibition at 1 µM: 78.4%

Structure (SMILES): CS(=O)(=O)c1ccc(Cl)c(C(=O)Nc2ccc(-n3nc(C(F)(F)F)cc3C3CC3)cc2)c1 [Example 65, 2-chloro-N-{4-[5-cyclopropyl-3-(trifluoromethyl)-1H-pyrazol-1-yl]phenyl}-5-(methylsulfonyl)benzamide]
- inhibition at 1 µM: 97.9%

Structure (SMILES): O=C(Nc1ccc(-n2nc(C3CC3)cc2C2CC2)nc1)c1ccccc1F [Example 43, N-[6-(3,5-dicyclopropyl-1H-pyrazol-1-yl)pyridin-3-yl]-2-fluorobenzamide]
- inhibition at 1 µM: 9.34%

Structure (SMILES): O=C(Nc1ccc(-n2nc(C3CC3)cc2C2CC2)nc1)c1c(F)cccc1F [Example 45, N-[6-(3,5-dicyclopropyl-1H-pyrazol-1-yl)pyridin-3-yl]-2,6-difluorobenzamide hydrochloride]
- inhibition at 1 µM: 72.3%

Structure (SMILES): Cc1ncsc1C(=O)Nc1ccc(-n2nc(C(F)(F)F)cc2CF)cc1 [Example 125, N-{4-[5-(fluoromethyl)-3-(trifluoromethyl)-1H-pyrazol-1-yl]phenyl}-4-methylthiazole-5-carboxamide]
- inhibition at 1 µM: 100%

Structure (SMILES): O=C(Nc1ccc(-n2nc(C3CC3)cc2C2CC2)nc1)c1cccc(F)c1F [Example 44, N-[6-(3,5-dicyclopropyl-1H-pyrazol-1-yl)pyridin-3-yl]-2,3-difluorobenzamide hydrochloride]
- inhibition at 1 µM: 63.4%

Structure (SMILES): O=C(Nc1ccc(-n2nc(C3CC3)cc2C2CC2)c(F)c1)c1c(F)cccc1F [Example 33, N-[4-(3,5-dicyclopropyl-1H-pyrazol-1-yl)-3-fluorophenyl]-2,6-difluorobenzamide]
- inhibition at 1 µM: 93.1%

Structure (SMILES): O=C(Cc1ccc(F)cc1)Nc1ccc(-n2nc(C3CC3)cc2C2CC2)cc1 [Example 20, N-[4-(3,5-dicyclopropyl-1H-pyrazol-1-yl)phenyl]-2-(4-fluorophenyl)acetamide]
- inhibition at 1 µM: 70.2%

Structure (SMILES): O=C(Cc1ccccn1)Nc1ccc(-n2nc(C(F)(F)F)c(Cl)c2C2CC2)c(F)c1 [Example 96, N-{4-[4-chloro-5-cyclopropyl-3-(trifluoromethyl)-1H-pyrazol-1-yl]-3-fluorophenyl}-2-(pyridin-2-yl)acetamide hydrochloride]
- inhibition at 1 µM: 18%

Structure (SMILES): O=C(Nc1c(F)cccc1F)c1ccc(-n2nc(C(F)(F)F)cc2C2CC2)cc1 [Example 79, 4-[5-cyclopropyl-3-(trifluororomethyl)-1H-pyrazol-1-yl]-N-(2,6-difluorophenyl) benzamide]
- inhibition at 1 µM: 100%

Structure (SMILES): O=C(Cc1ccccn1)Nc1ccc(-n2nc(C(F)(F)F)cc2C2CC2)nc1 [Example 117, N-{6-[5-cyclopropyl-3-(trifluoromethyl)-1H-pyrazol-1-yl]pyridin-3-yl}-2-(pyridin-2-yl)acetamide hydrochloride]
- inhibition at 1 µM: 0%

Structure (SMILES): CS(=O)(=O)c1cccc(C(=O)Nc2ccc(-n3nc(C(F)(F)F)cc3C3CC3)cc2)c1 [Example 63, N-{4-[5-cyclopropyl-3-(trifluoromethyl)-1H-pyrazol-1-yl]phenyl}-3-(methylsulfonyl)benzamide]
- inhibition at 1 µM: 39.1%

Structure (SMILES): O=C(Nc1ccc(-n2nc(C(F)(F)F)cc2C2CC2)nc1)c1cccc(F)c1F [Example 107, N-{6-[5-cyclopropyl-3-(trifluoromethyl)-1H-pyrazol-1-yl]pyridin-3-yl}-2,3-difluorobenzamide]
- inhibition at 1 µM: 97%

Structure (SMILES): O=C(Nc1ccc(-n2nc(C(F)(F)F)cc2C2CC2)c(F)c1)C1(c2ccccc2)CCC1 [Example 131, N-{4-[5-cyclopropyl-3-(trifluoromethyl)-1H-pyrazol-1-yl]-3-fluorophenyl}-1-phenylcyclobutanecarboxamide]
- inhibition at 1 µM: 0%

Structure (SMILES): O=C(Nc1ccc(-n2nc(C(F)(F)F)cc2C2CC2)c(F)c1)c1cccc(F)c1F [Example 87, N-{4-[5-cyclopropyl-3-(trifluoromethyl)-1H-pyrazol-1-yl]-3-fluorophenyl}-2,3-difluorobenzamide]
- inhibition at 1 µM: 91.6%

Structure (SMILES): O=C(Nc1cccc(F)c1F)c1ccc(-n2nc(C(F)(F)F)cc2C2CC2)nc1 [Example 121, 6-[5-cyclopropyl-3-(trifluoromethyl)-1H-pyrazol-1-yl]-N-(2,3-difluorophenyl)nicotinamide]
- inhibition at 1 µM: 23.1%

Structure (SMILES): O=C(Cc1ccccn1)Nc1ccc(-n2nc(C(F)(F)F)cc2C2CC2)cc1 [Example 71, N-{4-[5-cyclopropyl-3-(trifluoromethyl)-1H-pyrazol-1-yl]phenyl}-2-(pyridin-2-yl)acetamide hydrochloride]
- inhibition at 1 µM: 100%

Structure (SMILES): Cc1nnsc1C(=O)Nc1ccc(-n2nc(C(F)(F)F)cc2C2CC2)nc1 [Example 101, N-{6-[5-cyclopropyl-3-(trifluoromethyl)-1H-pyrazol-1-yl]pyridin-3-yl}-4-methyl-1,2,3-thiadiazole-5-carboxamide]
- inhibition at 1 µM: 93%

Structure (SMILES): Cc1nnsc1NC(=O)Nc1ccc(-n2nc(C(F)(F)F)cc2C2CC2)cc1 [Example 75, 1-{4-[5-cyclopropyl-3-(trifluoromethyl)-1H-pyrazol-1-yl]phenyl}-3-(4-methyl-1,2,3-thiadiazol-5-yl)urea]
- inhibition at 1 µM: 0%

Structure (SMILES): CSc1ccc(Cl)c(C(=O)Nc2ccc(-n3nc(C(F)(F)F)cc3C3CC3)cc2)c1 [Example 64, 2-chloro-N-{4-[5-cyclopropyl-3-(trifluoromethyl)-1H-pyrazol-1-yl]phenyl}-5-(methylthio)benzamide]
- inhibition at 1 µM: 100%

Structure (SMILES): Cc1nc(C)c(C(=O)Nc2ccc(-n3nc(C4CC4)cc3C3CC3)cc2)s1 [Example 3, N-[4-(3,5-dicyclopropyl-1H-pyrazol-1-yl)phenyl]-2,4-dimethylthiazole-5-carboxamide]
- inhibition at 1 µM: 72.2%

Structure (SMILES): O=C(Cc1ccccn1)Nc1ccc(-n2nc(C3CC3)cc2C2CC2)cc1 [Example 22, N-[4-(3,5-dicyclopropyl-1H-pyrazol-1-yl)phenyl]-2-(pyridin-2-yl)acetamide hydrochloride]
- inhibition at 1 µM: 73.4%
